Laboratory results as given in patent EP0542355A1, “Amorphous (Quinolin-2-ylmethoxy)indoles as leukotriene antagonists” (MERCK FROSST CANADA INC., priority 1991, dated 1993).
Several values for one entry are separate records, joined by “and”; a condition that tells them apart may be missing. Equal entries are not always repeated. Structures can show the parent of a compound that is named as a salt. Where two headings read alike, the source gives them in different places.

Experiments:
[1] = Aqueous solubility; format: physicochemical
Method: Solubility was measured by stirring […] in water (10 mL) of amorphous L-708 at room temperature. At 48 hrs. 1 mL of the suspension was drawn and centrifuged. The supernatant was diluted and content of amorphous L-708 was measured by both U.V. spectrophotometry and by HPLC. This gave a concentration of 55 mg/mL.

[2] = Bioavailability; format: in vivo
[3] = Stability of saturated aqueous solutions against precipitation of the crystalline form; format: physicochemical; settings: do not readily precipitate the crystalline form even when seeded with the crystalline allotrope
[4] = Stability to chemical decomposition; format: physicochemical; settings: in the solid form and in aqueous solution
Method: (§1) No change in water solubility has been observed even when stored for three months at 30°C and 60°C at ambient humidity and at 30°C/79% relative humidity.

[5] = Stability of the solid on storage, followed by water solubility; format: physicochemical; settings: solid stored three months at 30°C and 60°C at ambient humidity and at 30°C/79% relative humidity
Method: as §1

Row | SMILES | solubility ([1]; water, crystalline sodium salt, read-out: aqueous solubility) | oral bioavailability ([2]; oral) | solubility ([1]; de-ionized water, in de-ionized water at 25°C, read-out: solubility) | solubility at 48 h ([1]; water, 100 mg/mL stirred in water (10 mL) at room temperature, 48 hrs, U.V. spectrophotometry and HPLC, read-out: Solubility (concentration in supernatant)) | solubility ([1]; water, not tested higher, read-out: Solubility in water) | stability of saturated aqueous solutions [3] | stability to chemical decomposition [4] | change in water solubility on storage [5] | bioavailability ([2]; compared with L-708 Na⁺ salt)
1 | CC(C)(C)Sc1c(CC(C)(C)C(=O)O)n(Cc2ccc(Cl)cc2)c2ccc(OCc3ccc4ccccc4n3)cc12 [L-708 Na⁺ salt, Crystalline 3-[N-(p-chlorobenzyl)-3-(t-butylthio)-5-(quinolin-2-ylmethoxy)indol-2-yl]-2.2-dimethylpropanoic acid, sodium salt, reference compound] | 0.005 to 0.03 mg/mL | low oral bioavailability |  |  |  |  |  |  | 
2 | CC(C)(C)Sc1c(CC(C)(C)C(=O)O)n(Cc2ccc(Cl)cc2)c2ccc(OCc3ccc4ccccc4n3)cc12 [amorphous L-708, Amorphous 3-[N-(p-chlorobenzyl)-3-(t-butylthio)-5-(quinolin-2-ylmethoxy)indol-2-yl]-2,2-dimethylpropanoic acid, sodium salt] |  |  | 55 mg/mL | 55 mg/mL | ≥ 3000 µg/mL and ≥ 5000 µM | highly stable | highly stable to chemical decomposition | No change | much more bioavailable than L-708 Na⁺ salt
